Earlier results as cited in patent US9145409B2, “Benzhydryl derivatives” (CHIESI FARMACEUTICI S.p.A., priority 2013, dated 2015).

Tests used:
[1] = test system: smoking model of COPD in mice
[2] = COPD patients, oral, given over 4 weeks
[3] = clinical trials, 500 mg once daily given over 12 months
[4] = patients with severe disease, frequent exacerbations and mucus hypersecretion

O=C(Nc1c(Cl)cncc1Cl)c1ccc(OC(F)F)c(OCC2CC2)c1 [roflumilast]
lung inflammation and emphysema [1]: inhibits lung inflammation and emphysema
CXCL8 concentrations in sputum (COPD patients; [2]): significantly reduces
reduction of the numbers of neutrophils in sputum (COPD patients; [2]): 36%
clinical benefit as add-on (COPD patients; added to salmeterol or tiotropium): provides clinical benefit
exacerbations and quality of life (COPD patients; [3]): little effect in reducing exacerbations or improving quality of life
lung function (COPD patients; [3]): improved lung function in COPD patients to a small extent
improvement of FEV 1 (COPD patients; [4]): approximately 50 mL
reduction of exacerbation (COPD patients; [4]): about 15%
